# Reference: patent US6433007B1, “Methods for the prevention and treatment of post-surgical complications” (Alcon Manufacturing, Ltd., priority 1998, dated 2002)
# Test system: vitrectomy-induced PSC formation
# Assay: Post-vitrectomy posterior subcapsular cataract (PSC) formation in Dutch Belted rabbits, surgical irrigating solution
# Format: in vivo, Dutch Belted rabbit
# Conditions: for Incidence of Lens Line Suture Distortion: irrigating solution w/1.0 μM Compound X, rabbit, affected lenses/total lenses
# Protocol: The following example illustrates the reduction in frequency of post-vitrectomy cataract formation, employing a surgical irrigating solution containing a compound of formula (I).
# Age-matched, Dutch Belted rabbits were used in this study. At 2.5 months of age, unilateral, partial vitrectomy (vitreous replaced by irrigating solution) was performed. Briefly, rabbits (1.5-2.0 kg) were prepared for surgery by subcutaneous administration of atropine to maintain heart rate and limit lung and oropharynx fluid accumulation. Animals were then anesthetized by intramuscular administration of ketamine (45 mg/kg) and xylazine (6 mg/kg). Anesthesia was maintained by re-administration of half-doses of anesthetic every 35-45 minutes as needed. For pupil dilatation, phenylephrine HCL and cyclopentolate HCL were administered topically to the surgical eye (OD). The nonsurgical eye (OS) received Duratears and was then taped shut to prevent loss of moisture. Immediately prior to surgery, proparacaine was administered topically to the OD eye and a speculum inserted. […] Two sutures were placed in a figure eight (4 and 8 o'clock position), about 4.5 mm from the limbus, to accommodate the outer port suction cutter and endoilluminator, respectively. An inner port infusion cannula was sutured through the pars plana (6 o'clock position) about 4 mm from the limbus. Two additional punctures were made with a V-lance stiletto knife (20 gauge) for the instrument entry through the outer ports. Two sutures were then placed (3 and 9 o'clock position) in the sclera, approximately 1 mm from the limbus, to facilitate manipulation of the eye and to secure the metal contact lens holder. Viscoat® (125 μL) was then applied to the cornea followed by the placement of a wide angle lens onto the cornea. The vitreous was then removed using the SERIES TEN THOUSAND® OCUTOME® posterior-segment surgical system for 10 minutes by a combination of cutting (500 cuts/minute) and suction (90 mm Hg), while continually supplying BSS® or BSS Plus® irrigating solution, or an irrigating solution containing Compound X (1.0 μM) (at room temperature), at a rate of approximately 3.5 mL/minute and an ocular fluid pressure of 35 mm Hg. Upon completion of the surgery, instruments were withdrawn, infusion pressure reduced to 22 mm Hg, sclerotomies closed, and the conjunctiva reapproximated at the limbus with sutures. A typical surgical procedure required approximately 40-50 minutes, utilizing approximately 100 mL of irrigation solution. The amount of vitreous replaced was approximately 1.5 mL. At various times following vitrectomy, lenses were excised and immediately examined by low resolution light microscopy. Photographs were taken with a digital camera for a later assessment of line suture defects.
# The results of this study document the early development of PSC in the Dutch Belted rabbit following vitrectomy, as quantified by scoring for the presence of distorted suture branches and sub-branches. […] Comparison of the effect of vitrectomy with standard irrigation and the Compound X-supplemented irrigation 3 month post-surgery indicated a high incidence of an acute distortion of normally straight line sutures for animals of the standard irrigation treatment groups (Table 1) but not the Compound X treated animals. […] This abnormal condition was further aggravated at […] post-vitrectomy, as recognized by the extension of existing sub-branches and the development of additional small sub-branches. […] This condition was essentially maintained throughout twelve months post-vitrectomy.
# In contrast, 86% (or 6 out of 7 lenses) of the lenses from the Compound X treatment group were unaffected by vitrectomy with an average suture defect score of +1.7 at this same time point. The lens scores of animals treated with the Compound X supplemented therapeutic irrigation solution were essentially identical to those of naive controls (scoreavg=+1.63). […]
structure (smiles),measurement,setting,value
"COc1ccc2cc([C@H](C)C(=O)OCC[C@@]3(C)CCc4c(C)c(O)c(C)c(C)c4O3)ccc2c1 [Compound X, (S)-6-methoxy-[…]-methyl-naphthaleneacetic acid, (R)-2-(3,4-dihydro-6-hydroxy-2,5,7,8-tetramethyl-2H-1-benzopyran-2-yl)ethyl ester]",rate of lens growth,"3-12 months post-surgery, compared to naive controls, 1.0 μM in irrigating solution during vitrectomy",essentially identical to that of naive controls
same,Incidence of Lens Line Suture Distortion,3 month post-Vitrectomy,0/8
same,Incidence of Lens Line Suture Distortion,6 month post-Vitrectomy,1/7
same,Incidence of Lens Line Suture Distortion,12 month post-Vitrectomy,1/7
same,lenses unaffected by vitrectomy,"12 months post-vitrectomy, 6 out of 7 lenses, 1.0 μM in irrigating solution",86%
same,average suture defect score,"12 months post-vitrectomy, scale 0 (straight line suture) to +6 (very crooked suture pattern with many sub-branches or mature cataract), naive controls +1.63",+1.7
same,"lens suture appearance (distortion, sub-branches)","six months post-surgery, essentially maintained throughout twelve months post-vitrectomy, low resolution light microscopy","only slightly distorted suture branches which, on average, were devoid of sub-branches"
